Experiment [1] has as its system immature female rats. Briefly: Follicle maturation in vivo: sub-optimal FSH with co-administered PDE inhibitor, ovulatory hCG, oocytes counted in oviduct. More on the design: species or system rat. On the procedure:
Mature ovarian follicles generated in immature female rats by treatment with a sub-optimal dose of FSH (1.08 IU/rat/injection; bid×3 days) with and without co-administration of Compound 1 (0.1, 1, 10, and 50 mg/kg/injection: bid×3 days). […] The PDE inhibitors were given in conjunction with sub-optimal doses of FSH. All injections were subcutaneously administered. […] Results are expressed as mean plus or minus standard deviations. […] As also noted in FIG. 3, a PDE inhibitor (Compound 1) inhibited (rather than stimulated) both ovulation administered at 50 mg/kg.

The subject of experiment [2] is immature female rats. Briefly: In vivo ovulation model: FSH-pretreated immature rats, oocytes counted in oviduct after 18 hours. More on the design: species or system rat. The text has this:
The role of FSH in any ovulation induction regimen is for promoting follicular development and maturation, not ovulation induction.
All injections were subcutaneous. Results are expressed as mean plus or minus standard deviations. […] The effects of Compound 1, a known PDE inhibitor are shown.
Data represent average number of oocytes in oviducts of all rats in each group and frequency of ovulating rats. […] Results are expressed as mean plus or minus standard deviations.
Data represent average number of oocytes in oviducts of all rats in each group and frequency of ovulating rats. Results are expressed as mean plus or minus standard deviations.
Following FSH induced follicular maturation (2.16 IU/rat/injection; bid×2 days) Compound 2 was either injected subcutaneously (subcutis) or administered by oral gavage. Ovulation was determined 18 hours after Compound 2 administration by counting oocytes in oviduct. Data represent average number of oocytes in oviducts of all rats in each group and frequency of ovulating rats. Results are expressed as mean plus or minus standard deviations.
Following FSH induced follicular maturation (2.16 IU/rat/injection; bid×2 days) […] was either injected subcutaneously (subcutis) or administered by oral gavage. Ovulation was determined 18 hours after Compound 2 administration by counting oocytes in oviduct. Data represent average number of oocytes in oviducts of all rats in each group and frequency of ovulating rats. Results are expressed as mean plus or minus standard deviations.

The subject of experiment [3] is rat ovarian granulosa cells. Briefly: Rat ovarian granulosa cell cAMP levels, alone or with gonadotropins in vitro (cAMP specific RIA). In kind it is cell-based. The settings on record: 25 micromolar compound with subeffective (0.1 pM) gonadotropin, 48 hrs. On the procedure:
Ovaries were removed from immature 25 day old, hypophysectomized, diethylstilbesterol treated Sprague-Dawley rats. The ovaries were repeatedly punctured with 27 gauge needles to liberate granulosa cells from the follicles. Cells were washed and re-suspended in McCoys 5A media+0.1% BSA+2 μM androstenedione. Viable cells in number of 100,000 were loaded into 6-well tissue culture dishes in a 1.0 ml volume (with Compound 1 and Compound 2 at a concentration of 25 micromolar, either alone or in conjunction with a low, 0.1 pM dose of gonadotropin). Plates were incubated in a 37° C. incubator, 100% humidity, 5.0% CO2 for 48 hrs. Conditioned media were assayed in a cAMP specific RIA. Results are expressed as mean plus or minus standard deviations.
A general note: cAMP levels reflect the balance of adenylyl cyclase and phosphodiesterase activity.

A further experiment concerns immature rats. The experiment can be described thus: Ovulation and fertility in FSH/PMSG pretreated immature rats. In kind it is in vivo, rat. The settings on record: single subcutaneous injection. The protocol: Follicular maturation was induced in immature rats with FSH (4.33 IU/rat/injection; bid×2 days) and Pregnant Mare's Serum Gonadotropin (PMSG) (1.5 IU/rat/injection; bid×2 days). […] FSH and PMSG induced rats were then treated with either Compound 2 (12 rats) or vehicle (12 rats) by subcutaneous administration. In one cohort of rats (6 rats per treatment), ovulation was determined 18 hours after Compound 2 or vehicle administration by counting oocytes in oviduct. To assess fertility, another cohort of rats (6 rats per treatment) were individually placed overnight in a cage together with a single adult male rat of proven fertility. The next day, male rats were removed and the females were caged together by group until the day of parturition. The number of live full-term pups observed at the time of parturition was recorded. […] Results for both ovulation and live pups are expressed as mean plus or minus standard deviations.

The mark [4] stands for this setting: single subcutaneous injection co-administered with sub-effective dose of hCG.
Where [5] appears, read: subcutaneous injection alone, without hCG.

`COc1ccc([C@]2(C#N)CC[C@@H](C(=O)O)CC2)cc1OC1CCCC1` [Compound 1, Cis-4-cyano-4-(3-(cyclopentyloxy)-4-methoxyphenyl)cyclohexane-1-carboxylic acid]: in the experiment on immature female rats [1] (50 mg/kg/injection bid x 3 days s.c. with sub-optimal FSH (1.08 IU), ovulatory hCG 20 IU), the “ovulation (oocytes in oviduct, frequency of ovulating rats)” value is recorded as “inhibited”. The “ability of a sub-optimal dose of FSH to prepare follicles to ovulate” value in the experiment on immature female rats [1] (increasing doses 0.1, 1, 10, 50 mg/kg/injection bid x 3 days s.c. with sub-optimal FSH) was “failed to enhance”. The “ovulation (oocytes in oviduct)” value with immature female rats [2] (setting [4]) and in the experiment with immature female rats [2] (setting [5]) was “induction of ovulation” each time. Also, the “cAMP levels in conditioned media” value in experiment [3] is “significant increase”.
Turning to `CCOc1cc2cc(CO)c(CO)c(-c3ccnc(-n4nc(-c5cccnc5)c5ccccc5c4=O)c3)c2cc1OCC.Cl` [Compound 3, 2-(4-(6,7-Diethoxy-2,3-bis(hydroxymethyl)naphthalen-1-yl)pyridin-2-yl)-4-(3-pyridyl) pthalazin-1 (2H)-one hydrochloride], the “ovulation (oocytes in oviduct)” value with immature female rats [2] (oral gavage, without hCG) is listed as “induction of ovulation”; with immature female rats [2] (setting [5]) it was “induction of ovulation”.
Take `COc1ccc(C(=O)Nc2c(Cl)cncc2Cl)cc1OC1CCCC1` [Compound 2, 3-(Cyclopentyloxy)-N-(3,5-dichloropyridin-4-yl)-4-methoxybenzamide]: the “ovulation (oocytes in oviduct)” value is reported as “induction of ovulation” with immature rats (18 hours); “induction of ovulation” in the experiment on immature female rats [2] (oral gavage, without hCG); “induction of ovulation” with immature female rats [2] (setting [5]). Besides, the “number of live full-term pups at the time of parturition” value with immature rats (mated overnight) is “increased number of live pups”. Further, in experiment [3], the “cAMP levels in conditioned media” value is reported as “significant increase”.
Take `Clc1nc2c(N3CCCC3)nc(N3CCNCC3)nc2nc1NCc1ccccc1` [Compound 4, 7-Benzylamino-6-chloro-2-piperazino-4-pyrrolidinopteridine]: the “ovulation (oocytes in oviduct)” value is “induction of ovulation” with immature female rats [2] (setting [4]) and “little or no ovulation” with immature female rats [2] (setting [5]).

Values taken from patent US7507707B2, “Methods of inducing ovulation using a non-polypeptide camp level modulator” (Laboratoires Serono SA, priority 2001, dated 2009).
